Source: patent US20210070747A1, “2(1H)-QUINOLINONE DERIVATIVE” (priority 2017, published 2021)
≈ marks a conversion by molar mass, not a printed value. Structures can show the parent of a compound that is named as a salt. Where two headings read alike, the source gives them in different places.

What was measured:
E. coli DNA gyrase [1] = target: T1, E. coli DNA gyrase (Escherichia coli, UniProt P0AES6); assay: Test for evaluating the activity of inhibiting E. coli DNA gyrase enzyme (Method 2, supercoiling, recombinant gyrA/gyrB complex); format: biochemical
T1 construct: made in house; host or cells: E. coli BL21 (DE3)
How it was run: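 Recombinant E. coli gyrA/gyrB complex (His-tagged, BL21(DE3)-expressed, Ni-NTA purified; 0.135 nmol/mL final) supercoiled relaxed pBR322 (1 ng/μL) with 0.5 mmol/L ATP in pH 8.0 Tris buffer, 60 min at room temperature. H19 stopped the reaction; supercoiled/relaxed ratio read at 485/535 nm, inhibition curves built from varying compound concentrations.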

[2] = test system: N. gonorrhoeae ATCC 49226; assay: Test for evaluating antibacterial activity (N. gonorrhoeae), broth microdilution MIC; format: cell-based; settings: Neisseria gonorrhoeae, ATCC49226; 35° C., 24 hours, gonococcal broth
How it was run: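 Broth microdilution in gonococcal broth with 1% supplement C, inoculum from overnight chocolate II agar culture at McFarland 0.5 diluted 5-fold.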

E. coli topoisomerase IV = target: T2, E. coli topoisomerase IV (Escherichia coli, UniProt P20083); assay: Test for evaluating the activity of inhibiting E. coli topoisomerase IV enzyme (relaxation); format: biochemical
T2 construct: purchased Inspiralis
Description: The enzymatic activity of E. coli topoisomerase IV was measured by a method comprising reacting topoisomerase IV and its substrate, supercoiled pBR322 (Inspiralis), in the presence of ATP and detecting the post-reaction supercoiled pBR322/relaxed pBR322 ratio with H19.
Specifically, to 2 ng/μL of supercoiled pBR322, E. coli topoisomerase IV enzyme (Inspiralis) was added at a final concentration of 0.0075 U/μL and the mixture was incubated for 30 minutes at room temperature. This reaction was carried out in 20 mmol/L tris-HCl buffered solution (pH 8.0) comprising 0.5 mmol/L ATP, 0.005% bridge 35, 35 mmol/L ammonium acetate, 8 mmol/L magnesium chloride, 4.6% glycerol, and 1 mmol/L dithiothreitol. To the reaction mixture, H19 was added to bring the reaction to an end; thereafter, the supercoiled pBR322/relaxed pBR322 ratio was detected at excitation wavelength/emission wavelength=485 nm/535 nm. An inhibition curve was obtained by allowing the analyte compound to be present at varying concentrations during the reaction described above.

E. Coli ATCC 25922 = assay: Test for evaluating antibacterial activity (E. coli), broth microdilution MIC; format: cell-based; settings: Escherichia coli, ATCC25922; 35° C., 18 hours, cation-adjusted Mueller-Hinton medium
How it was run: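 Broth microdilution per modified CLSI method in cation-adjusted Mueller-Hinton medium. Inoculum from overnight heart infusion agar growth, McFarland 0.5 suspension diluted 10-fold; incubation 35° C for 18 hours. MIC taken as lowest drug concentration with no visible growth.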

E. coli DNA gyrase [3] = target: T1, E. coli DNA gyrase; assay: Test for evaluating the activity of inhibiting E. coli DNA gyrase enzyme (Method 1, supercoiling, Inspiralis enzyme); format: biochemical
How it was run: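 Relaxed pBR322 (1 ng/μL) supercoiled by E. coli gyrase (0.006 U/μL final) with 0.5 mmol/L ATP in 20 mmol/L Tris-HCl pH 8.0, 8 mmol/L MgCl2, 35 mmol/L ammonium acetate, 60 min, room temperature. Stopped with H19; supercoiled/relaxed ratio read at 485/535 nm; inhibition curve across compound concentrations.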

[4] = read-out: E. Coli TopoIV relaxation IC50
[5] = Method 1, read-out: E. Coli Gyrase supercoiling IC50
[6] = Method 2, read-out: E. Coli Gyrase supercoiling IC50

T2 sequence (P20083 whole entry): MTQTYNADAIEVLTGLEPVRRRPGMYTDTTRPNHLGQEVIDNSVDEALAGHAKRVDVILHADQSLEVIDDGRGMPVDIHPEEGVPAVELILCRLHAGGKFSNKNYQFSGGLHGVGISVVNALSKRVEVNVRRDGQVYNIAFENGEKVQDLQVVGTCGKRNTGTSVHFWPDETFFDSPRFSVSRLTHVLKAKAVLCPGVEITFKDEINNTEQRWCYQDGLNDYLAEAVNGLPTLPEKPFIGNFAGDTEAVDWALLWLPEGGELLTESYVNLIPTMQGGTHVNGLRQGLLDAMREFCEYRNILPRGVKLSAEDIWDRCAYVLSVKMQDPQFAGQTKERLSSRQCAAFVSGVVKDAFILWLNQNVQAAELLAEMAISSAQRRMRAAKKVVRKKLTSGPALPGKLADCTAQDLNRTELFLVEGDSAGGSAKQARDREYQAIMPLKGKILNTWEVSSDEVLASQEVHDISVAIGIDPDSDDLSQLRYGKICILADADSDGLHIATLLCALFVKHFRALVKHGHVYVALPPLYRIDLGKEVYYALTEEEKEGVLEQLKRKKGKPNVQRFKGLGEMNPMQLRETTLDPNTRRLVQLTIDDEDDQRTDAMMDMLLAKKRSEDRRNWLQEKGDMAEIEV
T2 sequence (P0AFI2 whole entry, further chain): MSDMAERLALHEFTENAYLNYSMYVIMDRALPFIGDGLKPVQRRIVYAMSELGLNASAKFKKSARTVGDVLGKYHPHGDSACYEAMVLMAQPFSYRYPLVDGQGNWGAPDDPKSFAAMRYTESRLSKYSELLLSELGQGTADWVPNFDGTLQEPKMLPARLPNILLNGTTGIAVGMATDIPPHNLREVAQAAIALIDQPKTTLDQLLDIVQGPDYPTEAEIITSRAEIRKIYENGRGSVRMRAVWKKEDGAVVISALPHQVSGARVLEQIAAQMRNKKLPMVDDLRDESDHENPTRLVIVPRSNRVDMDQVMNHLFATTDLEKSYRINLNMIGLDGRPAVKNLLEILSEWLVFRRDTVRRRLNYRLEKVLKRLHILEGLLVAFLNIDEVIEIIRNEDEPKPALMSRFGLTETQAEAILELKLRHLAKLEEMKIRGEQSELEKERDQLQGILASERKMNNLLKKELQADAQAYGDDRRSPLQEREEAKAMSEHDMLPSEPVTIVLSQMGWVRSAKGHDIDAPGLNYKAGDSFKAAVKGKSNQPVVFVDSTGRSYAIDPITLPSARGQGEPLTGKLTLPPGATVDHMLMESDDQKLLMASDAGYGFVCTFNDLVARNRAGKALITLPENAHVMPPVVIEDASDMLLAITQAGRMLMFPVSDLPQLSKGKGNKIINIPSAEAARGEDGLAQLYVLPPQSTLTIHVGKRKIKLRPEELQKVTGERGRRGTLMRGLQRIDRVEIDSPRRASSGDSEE

## CNc1cc(F)cc2cc(C(=O)Nc3ccc(C(=O)O)cc3)c(=O)[nH]c12 [Example 33, 4-[[6-Fluoro-8-(methylamino)-2-oxo-1,2-dihydroquinoline-3-carbonyl]amino]benzoic Acid]
E. coli DNA gyrase [1]
  IC50: 0.36 nM
[2]
  MIC: 0.004 µg/mL (≈ 0.0113 µM)
E. coli topoisomerase IV
  IC50: 219 nM
E. Coli ATCC 25922
  MIC: 16 µg/mL (≈ 45 µM)

## CNc1cc(F)cc2cc(C(=O)Nc3ccccc3CN(C)C3CCCCC3)c(=O)[nH]c12 [Example 52, N-(2-{[cyclohexyl(methyl)amino]methyl}phenyl)-6-fluoro-8-(methylamino)-2-oxo-1,2-dihydroquinoline-3-carboxamide]
[2]
  MIC: 0.5 µg/mL (≈ 1.15 µM)
E. coli topoisomerase IV; [4]
  IC50: 519 nM
E. coli DNA gyrase [3]; [5]
  IC50: 2.47 nM
E. Coli ATCC 25922
  MIC: 16 µg/mL (≈ 36.7 µM)

## CNc1cc(F)cc2cc(C(=O)Nc3cnc(C(=O)O)nc3)c(=O)[nH]c12 [Example 65, 5-[[6-Fluoro-8-(methylamino)-2-oxo-1,2-dihydroquinoline-3-carbonyl]amino]pyrimidine-2-carboxylic Acid]
[2]
  MIC: 0.5 µg/mL (≈ 1.4 µM)
E. coli topoisomerase IV; [4]
  IC50: 32.5 nM
E. coli DNA gyrase [3]; [5]
  IC50: 0.95 nM
E. Coli ATCC 25922
  MIC: > 16 µg/mL

## CNc1cc(F)cc2cc(C(=O)Nc3ccc(C(=O)O)cc3CN(C)C3CCCCC3)c(=O)[nH]c12 [Example 70, 3-{[cyclohexyl (methyl)amino]methyl}-4-{[6-fluoro-8-(methylamino)-2-oxo-1,2-dihydroquinoline-3-carbonyl]amino} bezoic acid-hydrochloride]
[2]
  MIC: 0.03 µg/mL
E. coli topoisomerase IV
  IC50: 47.4 nM
E. coli DNA gyrase [3]
  IC50: 0.53 nM
E. Coli ATCC 25922
  MIC: 8 µg/mL

## CNc1cc(F)cc2cc(C(=O)Nc3ccc(C(=O)O)cc3CN(C)C)c(=O)[nH]c12 [Example 85, 3-[(dimethylamino)methyl]-4-{[6-fluoro-8-(methylamino)-2-oxo-1,2-dihydroquinoline-3-carbonyl]amino} benzoic acid]
E. coli DNA gyrase [1]
  IC50: 0.61 nM
[2]
  MIC: 2 µg/mL (≈ 4.85 µM)
E. coli topoisomerase IV
  IC50: 176 nM
E. Coli ATCC 25922
  MIC: > 4 µg/mL

## CNc1cc(F)cc2cc(C(=O)Nc3ccc(C(=O)O)cc3CN3CCCCC3)c(=O)[nH]c12 [Example 96, 4-{[6-fluoro-8-(methylamino)-2-oxo-1,2-dihydroquinoline-3-carbonyl]amino}-3-[(piperidine-1-yl)methyl] benzoic acid]
E. coli DNA gyrase [1]
  IC50: 0.31 nM
[2]
  MIC: 0.015 µg/mL (≈ 0.0332 µM)
E. coli topoisomerase IV
  IC50: 15.3 nM
E. Coli ATCC 25922
  MIC: 4 µg/mL (≈ 8.84 µM)

## CCCCCN(C)Cc1cc(C(=O)O)ccc1NC(=O)c1cc2cc(F)cc(NC)c2[nH]c1=O [Example 98, 4-{[6-fluoro-8-(methylamino)-2-oxo-1,2-dihydroquinoine-3-carbonyl]amino}-3-{[methyl (pentyl)amino)methyl} benzoic acid]
E. coli DNA gyrase [1]
  IC50: 0.21 nM
[2]
  MIC: 0.06 µg/mL (≈ 0.128 µM)
E. coli topoisomerase IV
  IC50: 41.4 nM
E. Coli ATCC 25922
  MIC: 4 µg/mL (≈ 8.54 µM)

## CNc1cc(F)cc2cc(C(=O)Nc3ccc(C(=O)O)cc3CN(CCO)C3CCCCC3)c(=O)[nH]c12.Cl [Example 104, 3-{[cyclohexyl (2-hydroxyethyl)amino]methyl}-4-{[6-fluoro-8-(methylamino)-2-oxo-1,2-dihydroquinoline-3-carbonyl]amino} benzoic acid-hydrochloride]
E. coli DNA gyrase [1]
  IC50: 0.29 nM
[2]
  MIC: 0.015 µg/mL
E. coli topoisomerase IV
  IC50: 23.4 nM
E. Coli ATCC 25922
  MIC: 8 µg/mL

## CNc1cc(F)cc2cc(C(=O)Nc3ccc(C(=O)O)cc3CN(CC(=O)O)C3CCCCC3)c(=O)[nH]c12 [Example 107, 3-{[(carboxymethyl) (cyclohexyl)amino]methyl} -4-{[6-fluoro-8-(methylamino)-2-oxo-1,2-dihydroquinoline-3-carbonyl]amino} benzoic acid]
E. coli DNA gyrase [1]; [6]
  IC50: 0.57 nM
[2]
  MIC: 0.5 µg/mL (≈ 0.953 µM)
E. coli topoisomerase IV; [4]
  IC50: 76.3 nM
E. Coli ATCC 25922
  MIC: > 64 µg/mL

## CNc1cc(F)cc2c(O)c(C(=O)Nc3ccc(C(=O)O)cc3)c(=O)[nH]c12 [Example 117, 4-[[6-Fluoro-4-hydroxy-8-(methylamino)-2-oxo-1,2-dihydroquinoline-3-carbonyl]amino]benzoic Acid]
E. coli DNA gyrase [1]; [6]
  IC50: 1.1 nM
[2]
  MIC: 0.0005 µg/mL (≈ 0.00135 µM)
E. coli topoisomerase IV; [4]
  IC50: 62.9 nM
E. Coli ATCC 25922
  MIC: 1 µg/mL (≈ 2.69 µM)

## CNc1cc(F)cc2cc(C(=O)Nc3ccc(C(=O)NS(=O)(=O)N(C)C)cc3)c(=O)[nH]c12 [Example 146, N-{4-[(dimethylsulfamoyl)carbamoyl]phenyl}-6-fluoro-8-(methylamino)-2-oxo-1,2-dihydroquinoline-3-carboxamide]
E. coli DNA gyrase [1]; [6]
  IC50: 0.43 nM
[2]
  MIC: 0.008 µg/mL (≈ 0.0173 µM)
E. coli topoisomerase IV; [4]
  IC50: 51.9 nM
E. Coli ATCC 25922
  MIC: 16 µg/mL (≈ 34.7 µM)

## CNc1cc(F)cc2c(O)c(C(=O)Nc3ccc(C(=O)NS(=O)(=O)N(C)C)cc3)c(=O)[nH]c12 [Example 148, N-{4-[(dimethyl-sulfamoyl)carbamoyl]phenyl}-6-fluoro-4-hydroxy-8-(methylamino)-2-oxo-1,2-dihydroquinoline-3-carboxamide]
E. coli DNA gyrase [1]
  IC50: 2.66 nM
[2]
  MIC: ≤ 0.0005 µg/mL
E. coli topoisomerase IV
  IC50: 127 nM
E. Coli ATCC 25922
  MIC: 1 µg/mL (≈ 2.09 µM)

## CNc1cc(F)cc2c(O)c(C(=O)Nc3ccc(C(=O)O)cc3CN3CCCCC3)c(=O)[nH]c12.O=C(O)C(F)(F)F [Example 153, 4-{[6-fluoro-4-hydroxy-8-(methylamino)-2-oxo-1,2-dihydroquinoline-3-carbonyl]amino}-3-[(piperidine-1-yl)methyl]benzoic acid-trifluoroacetate]
E. coli DNA gyrase [1]
  IC50: 7.53 nM
[2]
  MIC: 0.06 µg/mL
E. coli topoisomerase IV
  IC50: 4930 nM
E. Coli ATCC 25922
  MIC: 8 µg/mL
